This note sets out measurements from the Kinase Knowledgebase extract (Sharma et al. 2016).

The structures appear in SMILES notation.

Broadly, the IC50 is the concentration that inhibits the measured activity by half. Low readings indicate inhibition by little substance, high ones a need for much substance.

PIK3CA (human), sequence (P42336 whole entry, looked up): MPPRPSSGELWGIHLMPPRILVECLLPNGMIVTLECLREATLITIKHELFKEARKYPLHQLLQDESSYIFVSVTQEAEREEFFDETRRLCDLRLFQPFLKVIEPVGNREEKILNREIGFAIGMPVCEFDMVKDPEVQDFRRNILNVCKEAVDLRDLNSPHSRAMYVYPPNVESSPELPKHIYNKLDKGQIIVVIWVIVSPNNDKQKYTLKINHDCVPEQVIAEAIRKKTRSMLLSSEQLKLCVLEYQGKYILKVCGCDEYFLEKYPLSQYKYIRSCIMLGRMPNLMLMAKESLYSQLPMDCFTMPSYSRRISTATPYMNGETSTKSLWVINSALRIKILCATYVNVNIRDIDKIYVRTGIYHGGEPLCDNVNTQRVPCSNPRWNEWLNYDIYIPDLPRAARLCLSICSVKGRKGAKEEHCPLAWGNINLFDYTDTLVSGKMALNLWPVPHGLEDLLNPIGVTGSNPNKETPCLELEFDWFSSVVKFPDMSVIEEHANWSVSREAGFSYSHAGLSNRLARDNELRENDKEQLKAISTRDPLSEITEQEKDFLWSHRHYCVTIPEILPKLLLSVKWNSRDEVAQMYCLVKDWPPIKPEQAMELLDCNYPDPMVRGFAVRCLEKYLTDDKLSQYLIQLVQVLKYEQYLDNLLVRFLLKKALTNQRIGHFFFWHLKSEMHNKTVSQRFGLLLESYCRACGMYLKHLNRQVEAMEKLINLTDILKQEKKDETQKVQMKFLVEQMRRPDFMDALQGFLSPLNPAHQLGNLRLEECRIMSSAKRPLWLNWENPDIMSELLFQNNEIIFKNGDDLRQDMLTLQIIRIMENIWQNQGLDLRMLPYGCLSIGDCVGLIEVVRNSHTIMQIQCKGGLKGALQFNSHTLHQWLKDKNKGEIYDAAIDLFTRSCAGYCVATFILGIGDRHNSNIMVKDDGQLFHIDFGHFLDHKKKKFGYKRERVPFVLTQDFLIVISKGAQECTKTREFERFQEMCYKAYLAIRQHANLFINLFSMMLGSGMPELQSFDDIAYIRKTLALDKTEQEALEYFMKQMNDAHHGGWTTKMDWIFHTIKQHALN

The test addresses PIK3CA (human) (UniProt P42336). In words: Assessment of PIK3CA Kinase Activity.
As for `COc1ccc(-c2ccc3c(c2)CN(c2nc(N)nc(C)c2C(C)C)CCO3)cc1NS(C)(=O)=O`, the IC50 is 100 to 500 nM. For `CC1(C)CCc2nc(N)nc(N3CCOc4ccc(-c5ccc6[nH]cnc6c5)cc4C3)c2C1`, the IC50 is ≤ 100 nM. To `Cc1nc2cc(-c3ccc4c(c3)CN(c3nc(NC5CNC5)nc(C)c3C(C)C)CCO4)ccc2[nH]1` belongs ≤ 100 nM; to `COc1ccc(-c2ccc3c(c2)CN(c2nc(CN(C)C)nc4c2CC(C)(C)CC4)CCO3)cc1C(C)=O`, 100 to 500 nM; to `COc1ccc2c(N3CCOc4ccc(-c5ccc6[nH]c(C)nc6c5)cc4C3)nc(CN(C)C)nc2c1`, ≤ 100 nM. With `Cc1nc2cc(-c3ccc4c(c3)CN(c3nc(C(C)N)nc5c3CC(C)(C)CC5)CCO4)ccc2[nH]1` (stereo not given), the half-maximal inhibitory concentration (IC50) was ≤ 100 nM. Take `COC(=O)Nc1nc2cc(-c3ccc4c(c3)CN(c3nc(N)nc(C)c3C(C)C)CCO4)ccc2[nH]1`: the IC50 is ≤ 100 nM.

Turning to `CCNc1nc(C)c(Cc2ccc(F)cc2)c(N2CCOc3ccc(-c4ccc5[nH]c(C)nc5c4)cc3C2)n1`, the IC50 is 100 to 500 nM.

Consider `CCN(CC)Cc1nc(C)c(C(C)C)c(N2CCOc3ccc(-c4ccc5nc(C)[nH]c5c4)cc3C2)n1`, for which the half-inhibitory concentration (IC50) is ≤ 100 nM.

On to `Cc1nc2cc(-c3ccc4c(c3)CN(c3cc(N)ncc3C#N)CCO4)ccc2[nH]1`, for which the half-inhibitory concentration (IC50) is ≤ 100 nM.

For the compound `Cc1nc2cc(-c3ccc4c(c3)CN(c3nc(N)nc(C)c3C(C)C)CCO4)cnc2[nH]1`, the IC50 was ≤ 100 nM. To `Cc1nc2cc(-c3ccc4c(c3)CN(c3nc(CN(C)C)nc(C)c3-c3ccccc3)CCO4)ccc2[nH]1` belongs 100 to 500 nM. For the compound `COC(=O)Cc1c(C)nc(CN(C)C)nc1N1CCOc2ccc(-c3ccc4nc(C)[nH]c4c3)cc2C1`, the concentration for half-maximal inhibition (IC50) is ≤ 100 nM. For `COc1ccc(-c2ccc3c(c2)CN(c2nc(CN(C)C)nc(C)c2C(C)C)CCO3)cc1NS(C)(=O)=O`, the IC50 was ≤ 100 nM. Turning to `COc1ccc(-c2ccc3c(c2)CN(c2nc(CN(C)C)nc4c2CC(C)(C)CC4)CCO3)cc1S(C)(=O)=O`, the concentration for half-maximal inhibition (IC50) was ≤ 100 nM.

Take `COc1ccc2c(N3CCOc4ccc(-c5cnc6[nH]cnc6c5)cc4C3)nc(CN(C)C)nc2c1`: the IC50 is ≤ 100 nM. In the case of `Cc1nc2cc(-c3ccc4c(c3)CN(c3nc(NC5CNC5)nc(C)c3Cc3ccc(F)cc3)CCO4)ccc2[nH]1` it was ≤ 100 nM.

Regarding `Cc1nc2cc(-c3ccc4c(c3)CN(c3nc(N)nc(C)c3Cc3ccc(F)cc3)CCO4)ccc2[nH]1`, the IC50 is ≤ 100 nM.

Regarding `Cc1nc2ccc(-c3cc(F)c4c(c3)CN(c3nc(N)nc(C)c3C(C)C)CCO4)cc2[nH]1`, the IC50 is ≤ 100 nM. Consider `COCCc1c(C)nc(CN(C)C)nc1N1CCOc2ccc(-c3ccc4nc(C)[nH]c4c3)cc2C1`, for which the IC50 was ≤ 100 nM. As for `Cc1nc2cc(-c3ccc4c(c3)CN(c3nc(N)nc(C)c3C(C)C)CCO4)ccc2[nH]1`, the half-inhibitory concentration (IC50) is ≤ 100 nM. With `Cc1nc2cc(-c3ccc4c(c3)CN(c3nc(N)nc5c3CC(C)(C)CC5)CCO4)ccc2[nH]1`, the half-inhibitory concentration (IC50) was ≤ 100 nM. With `Cc1nc2cc(-c3ccc4c(c3)CN(c3nc(N)nc(C)c3Cc3ccc(F)cc3)CCO4)cnc2[nH]1`, the concentration for half-maximal inhibition (IC50) is ≤ 100 nM. With `Cc1nc2ccc(-c3ccc4c(c3)CN(c3nc(CO)nc(C)c3C(C)C)CCO4)cc2[nH]1`, the IC50 is ≤ 100 nM. In the case of `CCNc1nc2cc(-c3ccc4c(c3)CN(c3nc(N)nc(C)c3C(C)C)CCO4)ccc2[nH]1` it was ≤ 100 nM. To `Cc1nc(N)nc(N2CCOc3ccc(-c4ccc5[nH]cnc5c4)cc3C2)c1Cc1ccc(F)cc1` belongs ≤ 100 nM. In the case of `Cc1nc2cc(-c3ccc4c(c3)CN(c3nc(NCCN(C)C)nc(C)c3Cc3ccc(F)cc3)CCO4)ccc2[nH]1` it was ≤ 100 nM; in that of `Cc1nc2ccc(-c3ccc4c(c3)CN(c3nc(CN(C)C)nc(C)c3C)CCO4)cc2[nH]1`, ≤ 100 nM; in that of `Cc1nc2cc(-c3ccc4c(c3)CN(c3nc(CN(C)C)nc(C)c3Br)CCO4)ccc2[nH]1`, ≤ 100 nM.

`CC1(C)CCc2nc(N)nc(N3CCOc4ccc(-c5cnc6[nH]cnc6c5)cc4C3)c2C1`: the IC50 was ≤ 100 nM.

As for `Cc1nc2cc(-c3ccc4c(c3)CN(c3nc(CF)nc5c3CC(C)(C)CC5)CCO4)ccc2[nH]1`, the IC50 is ≤ 100 nM. `Cc1nc2cc(-c3ccc4c(c3)CN(c3nc(CN(C)C)nc(C)c3CC(C)C)CCO4)ccc2[nH]1` yielded an IC50 of 100 to 500 nM. In the case of `Cc1nc2ncc(-c3ccc4c(c3)CN(c3nc(N)nc5c3CC(C)(C)CC5)CCO4)cc2[nH]1` it was ≤ 100 nM; in that of `Cc1nc(N)nc(N2CCOc3ccc(-c4cnc5[nH]c(N)nc5c4)cc3C2)c1C(C)C`, ≤ 100 nM; in that of `CC(=O)OCc1nc(C)c(C(C)C)c(N2CCOc3ccc(-c4ccc5nc(C)[nH]c5c4)cc3C2)n1`, ≤ 100 nM. Take `CCCc1c(C)nc(CN(C)C)nc1N1CCOc2ccc(-c3ccc4nc(C)[nH]c4c3)cc2C1`: the IC50 was ≤ 100 nM. On to `COc1ccc(-c2ccc3c(c2)CN(c2nc(CN(C)C)nc4c2CC(C)(C)CC4)CCO3)cc1OC(F)F`, for which the IC50 was ≤ 100 nM.

With `CC(=O)NCc1nc2c(c(N3CCOc4ccc(-c5ccc6[nH]c(C)nc6c5)cc4C3)n1)CC(C)(C)CC2`, the IC50 is ≤ 100 nM. In the case of `Cc1nc(N)nc(N2CCOc3ccc(-c4cnc5[nH]cnc5c4)cc3C2)c1C(C)C` it was ≤ 100 nM; in that of `C=CCc1c(C)nc(CN(C)C)nc1N1CCOc2ccc(-c3ccc4nc(C)[nH]c4c3)cc2C1`, ≤ 100 nM. In the case of `Cc1nc2cc(-c3ccc4c(c3)CN(c3nc(NCCCN(C)C)nc(C)c3Cc3ccc(F)cc3)CCO4)ccc2[nH]1` it was 100 to 500 nM. For the compound `C=CCc1c(C)nc(N)nc1N1CCOc2ccc(-c3ccc4nc(C)[nH]c4c3)cc2C1`, the IC50 is ≤ 100 nM.

With `Cc1nc2cc(-c3ccc4c(c3)CN(c3nc(CN5CCCC5)nc(C)c3C(C)C)CCO4)ccc2[nH]1`, the half-maximal inhibitory concentration (IC50) was ≤ 100 nM. To `Cc1nc2cc(-c3ccc4c(c3)CN(c3nc(CN(C)C)nc(C)c3CCCF)CCO4)ccc2[nH]1` belongs ≤ 100 nM; to `COCCOc1cc(-c2ccc3c(c2)CN(c2nc(CN(C)C)nc4c2CC(C)(C)CC4)CCO3)ccc1OC`, ≤ 100 nM; to `Cc1nc(N)nc(N2CCOc3ccc(-c4ccc5[nH]cnc5c4)cc3C2)c1C(C)C`, ≤ 100 nM. In the case of `COc1ccc2c(N3CCOc4ccc(-c5ccc6[nH]cnc6c5)cc4C3)nc(CN(C)C)nc2c1` it was ≤ 100 nM; in that of `Cc1nc2cc(-c3ccc4c(c3)CN(c3nc(CNCCF)nc(C)c3C(C)C)CCO4)ccc2[nH]1`, ≤ 100 nM. In the case of `Cc1nc2cc(-c3ccc4c(c3)CN(c3nc(CN(C)C)nc(C)c3Cl)CCO4)ccc2[nH]1` it was 100 to 500 nM; in that of `Cc1nc(N)nc(N2CCOc3ccc(-c4cnc5[nH]cnc5c4)cc3C2)c1Cc1ccc(F)cc1`, ≤ 100 nM.
